One data set relates to H1975 cells. Put plainly: Inhibition of cell proliferation, CCK8 method. The data set is classed as cell-based, human. Particulars: 48 h, read-out: Inhibitory activity (IC50) against H1975. As for the experimental part:
(§1) The stock solution was diluted with the corresponding culture medium to the required concentration just before the experiment.
(§2) HBE cells and BEAS-2B cells are normal lung bronchial epithelial cell lines, and both cells were cultured in DMEM high glucose medium (supplemented with 10% fetal bovine serum and 1% double antibody) to the logarithmic growth phase; H460 cells, A549 cells, H1975 cells and HCC827 cells are lung cancer cell lines, and all of them were cultured in RPMI1640 medium (supplemented with 10% fetal bovine serum and 1% double antibody) to the logarithmic growth phase. Among them, H1975 cells and HCC827 cells are EGFR mutant cells.
(§3) The cells were counted, and then seeded in a 96-well plate at a density of 5000 cells/well, 100 μl for each well. The culture plate was moved into a CO2 incubator and incubated for 24 h at 37° C. and 5% CO2. Compounds at different concentrations were added to each well, 5 replicate wells for each concentration, and the cells were treated with the compounds for 48 hours. CCK8 detection reagent was added to each well according to the operation manual, and then the plate was further incubated for 1 h before terminating the culture. 450 nm wavelength was chosen, and the absorbance value of each well was adjusted on the microplate ELISA analyzer. The result was recorded. […] was taken as the horizontal axis, and absorbance as the vertical axis to plot a curve. The half inhibitory concentration (IC50) was calculated by Bliss method. Each experiment was repeated at least 3 times.
(§4) Normal lung cell lines and different lung cancer cell lines were selected for experiments.
In general terms: Tetrazolium assays rely on reduction of a dye to a coloured formazan, in cell work by metabolically active cells.

For the next data set, the system named is HBE cells. Put plainly: Inhibition of cell proliferation, CCK8 method. Type of data set: cell-based, human. Particulars: for IC50: HBE normal bronchial epithelial cells, 48 h, CCK8, read-out: Inhibitory activity (IC50) against HBE. As for the experimental part:
as §1, §2, §3, §4

The target in a further data set is T1, BTK (Homo sapiens, UniProt Q06187).
T1 construct: purchased Carna 08-180
In words: Kinase inhibition, mobility shift assay. Type of data set: biochemical. Particulars: for Single-concentration inhibitory activity on BTK, Mean (100% inhibition): compound concentration 4 nM; for IC50: read-out: Inhibitory activity (IC50) on BTK. How it is done:
(§5) According to relevant literature, the inhibitory activity of five kinases (EGFR, EGFR-LT, EGFR-LTC, BTK, JAK3) were tested. Note: EGFR, EGFR-LT, EGFR-LTC: wild-type EGFR, L858R/T790M (EGFR-LT), or L858R/T790M/C797S (EGFR-LTC) mutant protein.
(§6) 95 μl of 100% DMSO was added to the first well of a 96-well plate, and then 5 μl of 10 mM compound solution was added to prepare a 500 μM compound solution.
(§7) 10 μl solution was taken out from the 50-fold concentration of compound solution (prepared and tested), and transferred to a 96-well plate, to which was added 90 μl kinase buffer to prepare a 5-fold concentration of compound solution.
(§8) 5 μl solution was taken out from the 5-fold concentration of compound solution in a 96-well plate, and transferred to a 384-well reaction plate. For example, the solution was transferred from well A1 of a 96-well plate to wells A1 and A2 of a 384-well plate, from well A2 of a 96-well plate to wells A3 and A4 of a 384-well plate, and so on.
(§9) 1) The kinase was added to 1× kinase buffer to form 2.5× kinase solution;
(§10) 2) 10 μl of the above 2.5× kinase solution was transferred to a 384-well reaction plate, and 1× kinase buffer was added to the negative control well, then incubated for 10 min at room temperature;
(§11) 3) FAM-labeled polypeptide and ATP were added to 1× kinase buffer to form a 2.5×substrate solution;
(§12) 5) The 384-well reaction plate was incubated at 28° C. for 60 min, to which was added 30 μl of stop solution to stop the reaction, and the model of biochemical incubator was SPX-100B-Z.
(§13) The conversion rate was read on CaliperEZ Reader.
(§14) 1) The conversion rate data were copied from CaliperEZ Reader II;
(§15) 2) The conversion rate was converted into the inhibition rate;
(§16) Percent inhibition=(max−conversion)/(max−min)*100
(§17) “min” is the reading of the control well without enzyme; “max” is the reading of DMSO control well.
(§18) 3) IC50 values were fitted by using XLFit excel add-in version 5.4.0.8.
(§19) Fitting formula: Y=Bottom+(Top−Bottom)/(1+(IC50/X)^HillSlope)

The target in another data set is T2, EGFR (T790M L858R) (Homo sapiens, UniProt P00533, L858R/T790M).
T2 construct: purchased Invitrogen PR8911A
Put plainly: Kinase inhibition, mobility shift assay. The data set is classed as biochemical. Conditions: for Single-concentration inhibitory activity against EGFR T790M L858R, Mean (100% inhibition): compound concentration 2 nM; for IC50: EGFR L858R/T790M double mutation, read-out: Inhibitory activity (IC50) on EGFR (T790M L858R); for inhibitory activity against EGFR L858R/T790M higher than against wild-type EGFR: ratio of IC50 values wild-type EGFR / EGFR L858R/T790M. How it is done: as §5, §6, §7, §8, §9, §10, §11, §12, §13, §14, §15, §16, §17, §18, §19

The target in another data set is T3, JAK3 (Homo sapiens, UniProt P52333).
T3 construct: purchased Carna 08-046
T3 sequence (P52333 1-1124): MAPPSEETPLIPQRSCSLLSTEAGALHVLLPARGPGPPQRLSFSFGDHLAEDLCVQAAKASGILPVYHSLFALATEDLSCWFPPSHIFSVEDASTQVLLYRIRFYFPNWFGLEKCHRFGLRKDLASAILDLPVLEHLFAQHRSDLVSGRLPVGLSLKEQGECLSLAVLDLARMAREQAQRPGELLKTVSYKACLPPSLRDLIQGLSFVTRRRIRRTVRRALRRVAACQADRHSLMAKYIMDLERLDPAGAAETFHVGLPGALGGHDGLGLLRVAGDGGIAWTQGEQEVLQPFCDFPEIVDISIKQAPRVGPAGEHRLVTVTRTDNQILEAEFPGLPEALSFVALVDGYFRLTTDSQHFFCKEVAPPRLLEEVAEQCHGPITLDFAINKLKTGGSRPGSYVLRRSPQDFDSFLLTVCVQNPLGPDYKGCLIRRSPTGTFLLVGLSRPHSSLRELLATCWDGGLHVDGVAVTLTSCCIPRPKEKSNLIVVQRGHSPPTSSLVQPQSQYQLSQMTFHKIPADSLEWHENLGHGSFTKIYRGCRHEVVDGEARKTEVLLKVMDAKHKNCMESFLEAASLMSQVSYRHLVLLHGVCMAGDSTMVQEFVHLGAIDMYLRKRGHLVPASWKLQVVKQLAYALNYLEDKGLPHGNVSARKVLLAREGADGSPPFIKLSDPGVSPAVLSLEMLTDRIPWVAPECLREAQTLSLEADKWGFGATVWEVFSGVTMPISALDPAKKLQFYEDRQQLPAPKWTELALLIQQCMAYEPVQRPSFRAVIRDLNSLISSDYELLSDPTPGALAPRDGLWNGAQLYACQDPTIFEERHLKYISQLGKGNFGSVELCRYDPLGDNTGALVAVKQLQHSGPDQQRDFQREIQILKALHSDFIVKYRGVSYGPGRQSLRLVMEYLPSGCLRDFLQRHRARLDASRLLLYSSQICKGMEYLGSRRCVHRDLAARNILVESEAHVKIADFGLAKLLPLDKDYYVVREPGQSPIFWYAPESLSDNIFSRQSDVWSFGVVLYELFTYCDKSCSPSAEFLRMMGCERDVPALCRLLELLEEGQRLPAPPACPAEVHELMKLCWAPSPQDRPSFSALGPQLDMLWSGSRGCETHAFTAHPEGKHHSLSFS
In words: Kinase inhibition, mobility shift assay. Particulars: for Single-concentration inhibitory activity on JAK3, Mean (100% inhibition): compound concentration 1 nM; for IC50: read-out: Inhibitory activity (IC50) on JAK3. Type of data set: biochemical. How it is done: as §5, §6, §7, §8, §9, §10, §11, §12, §13, §14, §15, §16, §17, §18, §19

Setting [1] is: Homo sapiens, NCI-H1975, H1975 EGFR mutant cells.

Like-named read-outs stand apart in the source and are kept apart here.

T2 sequence (P00533 25-1210 T790M/L858R): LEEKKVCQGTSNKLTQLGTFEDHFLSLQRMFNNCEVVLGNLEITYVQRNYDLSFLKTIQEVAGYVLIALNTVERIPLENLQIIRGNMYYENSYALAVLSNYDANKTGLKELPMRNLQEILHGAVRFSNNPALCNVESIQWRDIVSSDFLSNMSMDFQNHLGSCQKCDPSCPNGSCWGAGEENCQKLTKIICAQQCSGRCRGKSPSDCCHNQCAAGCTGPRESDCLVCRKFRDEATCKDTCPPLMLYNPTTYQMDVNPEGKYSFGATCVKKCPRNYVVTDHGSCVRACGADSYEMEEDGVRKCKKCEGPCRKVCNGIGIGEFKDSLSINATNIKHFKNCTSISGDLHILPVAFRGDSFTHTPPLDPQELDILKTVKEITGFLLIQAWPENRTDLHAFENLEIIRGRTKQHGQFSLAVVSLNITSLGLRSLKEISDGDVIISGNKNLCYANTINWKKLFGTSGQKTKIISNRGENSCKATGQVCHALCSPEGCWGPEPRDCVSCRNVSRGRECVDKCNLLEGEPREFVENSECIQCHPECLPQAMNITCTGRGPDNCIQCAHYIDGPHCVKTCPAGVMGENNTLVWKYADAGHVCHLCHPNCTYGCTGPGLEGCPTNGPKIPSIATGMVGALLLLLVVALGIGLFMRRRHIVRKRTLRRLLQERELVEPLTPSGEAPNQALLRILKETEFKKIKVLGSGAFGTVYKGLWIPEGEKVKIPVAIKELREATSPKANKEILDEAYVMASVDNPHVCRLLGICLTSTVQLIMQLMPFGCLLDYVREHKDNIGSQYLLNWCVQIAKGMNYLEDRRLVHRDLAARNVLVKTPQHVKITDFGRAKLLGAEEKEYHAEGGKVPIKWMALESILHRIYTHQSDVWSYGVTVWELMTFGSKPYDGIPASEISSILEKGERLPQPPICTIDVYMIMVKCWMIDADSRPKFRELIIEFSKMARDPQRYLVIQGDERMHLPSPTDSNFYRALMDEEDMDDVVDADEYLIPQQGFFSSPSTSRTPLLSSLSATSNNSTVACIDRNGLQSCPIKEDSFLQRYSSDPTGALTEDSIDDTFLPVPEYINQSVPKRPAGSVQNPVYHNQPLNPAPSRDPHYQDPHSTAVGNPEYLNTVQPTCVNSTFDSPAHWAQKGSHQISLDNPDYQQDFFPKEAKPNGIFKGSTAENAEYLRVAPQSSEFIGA
T1 sequence (Q06187 whole entry): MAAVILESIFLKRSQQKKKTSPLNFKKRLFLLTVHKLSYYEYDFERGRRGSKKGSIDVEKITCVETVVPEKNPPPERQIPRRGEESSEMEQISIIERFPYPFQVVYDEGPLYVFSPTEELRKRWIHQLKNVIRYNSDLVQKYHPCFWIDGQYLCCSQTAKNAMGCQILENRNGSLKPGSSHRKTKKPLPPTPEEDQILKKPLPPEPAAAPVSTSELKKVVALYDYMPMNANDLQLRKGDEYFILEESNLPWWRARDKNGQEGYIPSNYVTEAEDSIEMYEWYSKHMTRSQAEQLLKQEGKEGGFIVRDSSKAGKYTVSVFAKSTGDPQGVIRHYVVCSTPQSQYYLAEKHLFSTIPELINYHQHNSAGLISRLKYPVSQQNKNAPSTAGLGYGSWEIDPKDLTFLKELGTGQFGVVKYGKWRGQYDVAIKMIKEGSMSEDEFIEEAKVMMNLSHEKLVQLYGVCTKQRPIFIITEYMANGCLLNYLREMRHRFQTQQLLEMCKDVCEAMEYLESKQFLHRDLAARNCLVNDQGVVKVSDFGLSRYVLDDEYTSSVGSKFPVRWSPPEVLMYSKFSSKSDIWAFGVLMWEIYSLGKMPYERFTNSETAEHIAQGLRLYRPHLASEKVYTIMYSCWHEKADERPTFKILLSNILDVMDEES

As usually defined, the IC50 is the point on the concentration scale where inhibition reaches its midpoint. For the compound `C=CC(=O)Nc1cccc(Oc2nc(Nc3ccc(N4CCN(C)CC4)c(Cl)c3)nc3[nH]ccc23)c1` [Compound 2], the IC50 was 1.67 µM with H1975 cells (H1975 EGFR mutant cells) and 8.73 µM with HBE cells. Moreover, the “Single-concentration inhibitory activity on BTK, Mean (100% inhibition)” value at BTK is 37 % inhibition. For the same compound, on EGFR (T790M L858R), the “Single-concentration inhibitory activity against EGFR T790M L858R, Mean (100% inhibition)” value is given as 92 % inhibition. Further, the “Single-concentration inhibitory activity on JAK3, Mean (100% inhibition)” value at JAK3 is 77 % inhibition.

On to `C=CC(=O)Nc1cccc(Oc2nc(Nc3ccc(N4CCN(C)CC4)c(OC)c3)nc3[nH]ccc23)c1` [Compound 4], for which the IC50 in the data set on H1975 cells (setting [1]) was 22.4 µM. Moreover, the IC50 in the data set on HBE cells (Homo sapiens) is 12.5 µM. In addition, on BTK, the “Single-concentration inhibitory activity on BTK, Mean (100% inhibition)” value was found to be 15 % inhibition and the IC50 amounted to 0.031 µM. Besides, on EGFR (T790M L858R), the IC50 was found to be 0.0031 µM; the “Single-concentration inhibitory activity against EGFR T790M L858R, Mean (100% inhibition)” value is on record as 42 % inhibition; the “inhibitory activity against EGFR L858R/T790M higher than against wild-type EGFR” value (from here on “inhibitory activity … against wild-type EGFR”) was 70 fold. In addition, at JAK3, the “Single-concentration inhibitory activity on JAK3, Mean (100% inhibition)” value was determined as 26 % inhibition and the half-inhibitory concentration (IC50) worked out at 0.0023 µM.

For the compound `C=CC(=O)Nc1cccc(Oc2nc(Nc3ccc(N4CCN(C)CC4)c([N+](=O)[O-])c3)nc3[nH]ccc23)c1` [Compound 5], in the data set on H1975 cells (setting [1]), the IC50 amounted to 3.1 µM. For the same compound, in the data set on HBE cells (Homo sapiens), the IC50 stood at 7.54 µM. Further, at BTK, the “Single-concentration inhibitory activity on BTK, Mean (100% inhibition)” value is recorded as 3.8 % inhibition and the IC50 was found to be 0.043 µM. On EGFR (T790M L858R), the IC50 came out at 0.0027 µM; the “Single-concentration inhibitory activity against EGFR T790M L858R, Mean (100% inhibition)” value was found to be 49 % inhibition; the “inhibitory activity … against wild-type EGFR” value is listed as 54 fold. Also, at JAK3, the “Single-concentration inhibitory activity on JAK3, Mean (100% inhibition)” value stood at 23 % inhibition and the half-maximal inhibitory concentration (IC50) worked out at 0.0022 µM.

As to `C=CC(=O)Nc1cccc(Oc2nc(Nc3ccc(N4CCN(C)CC4)c(N)c3)nc3[nH]ccc23)c1` [Compound 6], in the data set on H1975 cells (setting [1]), the IC50 came to 3.84 µM. The IC50 in the data set with HBE cells (Homo sapiens) worked out at 22.7 µM. Besides, the “toxicity to normal epithelial cells HBE cells (in words)” value in the data set with HBE cells (compared with positive control commercially available Avtinib) is recorded as “less toxic”. Moreover, at BTK, the “Single-concentration inhibitory activity on BTK, Mean (100% inhibition)” value is given as 27 % inhibition and the IC50 came to 0.011 µM. Moreover, on EGFR (T790M L858R), the IC50 is 0.0034 µM; the “Single-concentration inhibitory activity against EGFR T790M L858R, Mean (100% inhibition)” value is 36 % inhibition; the “inhibitory activity … against wild-type EGFR” value is on record as 18 fold. On JAK3, the “Single-concentration inhibitory activity on JAK3, Mean (100% inhibition)” value worked out at 29 % inhibition and the IC50 was 0.0022 µM.

As for `C=CC(=O)Nc1cccc(Oc2nc(Nc3ccc(N4CCN(C)CC4)c([N+](=O)[O-])c3)nc3c2ccn3COC(=O)C(C)(C)C)c1` [Compound 7], the IC50 in the data set on H1975 cells (setting [1]) came out at 4.12 µM; in the data set on HBE cells (Homo sapiens), 3.61 µM. In addition, the “Single-concentration inhibitory activity on BTK, Mean (100% inhibition)” value on BTK was 5.9 % inhibition. In addition, the “Single-concentration inhibitory activity against EGFR T790M L858R, Mean (100% inhibition)” value at EGFR (T790M L858R) came to 3.5 % inhibition. Further, the “Single-concentration inhibitory activity on JAK3, Mean (100% inhibition)” value on JAK3 is given as −1.4 % inhibition.

As to `C=CC(=O)Nc1cccc(Oc2nc(Nc3ccc(N4CCN(C)CC4)c(N)c3)nc3c2ccn3COC(=O)C(C)(C)C)c1` [Compound 8], the IC50 in the data set with H1975 cells (setting [1]) was found to be 42 µM; in the data set with HBE cells (Homo sapiens), 9.58 µM. For the same compound, the “Single-concentration inhibitory activity on BTK, Mean (100% inhibition)” value at BTK was −2.9 % inhibition. Further, at EGFR (T790M L858R), the “Single-concentration inhibitory activity against EGFR T790M L858R, Mean (100% inhibition)” value was 2.4 % inhibition. Besides, the “Single-concentration inhibitory activity on JAK3, Mean (100% inhibition)” value on JAK3 was −7.6 % inhibition.

Regarding `C=CC(=O)Nc1cccc(Oc2nc(Nc3ccc(N4CCN(C)CC4)c(I)c3)nc3c2ccn3COC(=O)C(C)(C)C)c1` [Compound 9], the figures for the IC50 in the data set on H1975 cells (setting [1]) and with HBE cells (Homo sapiens) were 52.3 µM and 7.5 µM, respectively. Also, the “Single-concentration inhibitory activity on BTK, Mean (100% inhibition)” value on BTK was 3.3 % inhibition. The “Single-concentration inhibitory activity against EGFR T790M L858R, Mean (100% inhibition)” value on EGFR (T790M L858R) came out at 0.1 % inhibition. The “Single-concentration inhibitory activity on JAK3, Mean (100% inhibition)” value at JAK3 is given as −4.0 % inhibition.
